Results as given in patent US12371454B2, “Cyclic peptide compound having Kras inhibitory action” (priority 2019, dated 2025).
Starred links: 1 amine or outer side, 2 acyl side, 3 side chain; linkers in the order of their positions; H or OH if unused. Positions of bridges follow the written chain, without caps; N, C: chain ends. Non-standard residues stand in square brackets, D forms with d. Residues, ends and D or L forms follow the SMILES beside them. *: point of attachment. hPhe(3-Cl-4-CF3) = N[C@@H](CCc1ccc(C(F)(F)F)c(Cl)c1)C(=O)O; NEtPhe(4-CF3) = CCN[C@@H](Cc1ccc(C(F)(F)F)cc1)C(=O)O; hPhe(4-CF3) = N[C@@H](CCc1ccc(C(F)(F)F)cc1)C(=O)O; NMePhe(4-Cl) = CN[C@@H](Cc1ccc(Cl)cc1)C(=O)O; NMePhe(3-F) = CN[C@@H](Cc1cccc(F)c1)C(=O)O; NMePhe(4-F) = CN[C@@H](Cc1ccc(F)cc1)C(=O)O; hPhe(4-Cl) = N[C@@H](CCc1ccc(Cl)cc1)C(=O)O; NMedβ3hAla = C[C@H](CC(=O)[*:2])N(C)[*:1]; NMeGly(cPent) = CN[C@H](C(=O)O)C1CCCC1; Pro(4,4-F2) = O=C(O)[C@@H]1CC(F)(F)CN1; NMeCha = CN[C@@H](CC1CCCCC1)C(=O)O; NMeGly(cPr) = CN[C@H](C(=O)O)C1CC1; NMeI = CC[C@H](C)[C@H](NC)C(=O)O; N(CH2CH2)2CF2 = FC1(F)CCN(*)CC1; NMeD = CN[C@@H](CC(=O)O)C(=O)O; NMeL = CN[C@@H](CC(C)C)C(=O)O; NMeV = CN[C@H](C(=O)O)C(C)C; d(β3hA) = C[C@@H](N)CC(=O)O; Pip = O=C(O)[C@@H]1CCCCN1; dPip = O=C(O)[C@H]1CCCCN1; NMeA = CN[C@@H](C)C(=O)O; Piperidide = C1CCN(*)CC1; dNMeA = CN[C@H](C)C(=O)O; Ac5c = NC1(C(=O)O)CCCC1; Aze = O=C(O)[C@@H]1CCN1; Ac4c = NC1(C(=O)O)CCC1; Sar = CNCC(=O)O

Molecular target: T1, Kras and SOS1 (biotin-tagged human Kras loaded with GDP, His-tagged human SOS1) (Homo sapiens, UniProt P01116, G12D)
T1 construct: made in house; host or cells: E. coli (stated for Kras only)
Test: Protein-protein interaction inhibition between Kras and SOS1 (KrasGl2D-SOS PPI) using AlphaScreen
Type: binding
Settings: AlphaScreen; biotin-tagged human Kras loaded with GDP, His-tagged human SOS1; read-out: KRAS G12D-SOS PPI IC50
Procedure, shortened: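 Kras was produced in E. coli, purified, then loaded with GDP. It was paired via streptavidin acceptor beads with His-SOS1 held on nickel donor beads, and proximity signal at 520-620 nm was read after 680 nm illumination.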

T1 sequence (P01116 1-188 isoform P01116-2 G12D): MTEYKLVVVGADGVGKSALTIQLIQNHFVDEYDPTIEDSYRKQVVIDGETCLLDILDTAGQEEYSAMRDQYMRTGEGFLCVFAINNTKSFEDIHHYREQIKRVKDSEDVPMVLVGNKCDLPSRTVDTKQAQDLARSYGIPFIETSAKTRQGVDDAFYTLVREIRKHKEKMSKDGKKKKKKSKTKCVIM

Compared with CC[C@H](C)[C@@H]1NC(=O)[C@H](C)N(C)C(=O)C[C@@H](C(=O)N2CCCCC2)N(C)C(=O)[C@H](C(C)C)N(C)C(=O)C2(CCCC2)NC(=O)[C@H](Cc2ccc(F)cc2)N(C)C(=O)[C@H](CCc2ccc(C(F)(F)F)c(Cl)c2)NC(=O)CN(C)C(=O)[C@H](CC2CCCCC2)N(C)C(=O)CN(C)C(=O)CN(C)C1=O [Compound 821] ([NMeA]I[Sar][Sar][NMeCha][Sar][hPhe(3-Cl-4-CF3)][NMePhe(4-F)][Ac5c][NMeV][NMeD]-Piperidide; lactam N-11), CC[C@H](C)[C@@H]1NC(=O)[C@H](C)N(C)C(=O)C[C@@H](C(=O)N2CCCCC2)N(C)C(=O)[C@H](C(C)C)N(C)C(=O)[C@H](CC(C)C)NC(=O)[C@H](CC(=O)N2CCC(F)(F)CC2)N(C)C(=O)[C@H](CCc2ccc(C(F)(F)F)c(Cl)c2)NC(=O)CN(C)C(=O)[C@H](CC2CCCCC2)N(C)C(=O)CN(C)C(=O)CN(C)C1=O [Compound 826] ([NMeA]I[Sar][Sar][NMeCha][Sar][hPhe(3-Cl-4-CF3)][NMeD](N(CH2CH2)2CF2)L[NMeV][NMeD]-Piperidide; lactam N-11) is 9.2-fold higher in IC50: 12 nM for the first, 110 nM for the second. The first is the more potent here.

Going from CC[C@H](C)[C@@H]1NC(=O)[C@H](C)N(C)C(=O)C[C@@H](C)NC(=O)[C@H](C2CCCC2)N(C)C(=O)C2(CCCC2)NC(=O)[C@@H]2CCCN2C(=O)[C@H](CCc2ccc(C(F)(F)F)c(Cl)c2)NC(=O)[C@@H](C)N(C)C(=O)[C@H](Cc2cccc(F)c2)N(C)C(=O)CN(C)C(=O)CN(C)C1=O [Compound 830] (cyclo([Ac5c][NMeGly(cPent)][d(β3hA)][NMeA]I[Sar][Sar][NMePhe(3-F)][dNMeA][hPhe(3-Cl-4-CF3)]P)) to CC[C@H](C)[C@@H]1NC(=O)[C@H](C2CC2)N(C)C(=O)C[C@@H](C)NC(=O)[C@H](C(C)C)N(C)C(=O)C2(CCCC2)NC(=O)[C@@H]2CCCN2C(=O)[C@H](CCc2ccc(C(F)(F)F)c(Cl)c2)NC(=O)CN(C)C(=O)[C@H](CC2CCCCC2)N(C)C(=O)CN(C)C(=O)CN(C)C1=O [Compound 844] (cyclo([Ac5c][NMeV][d(β3hA)][NMeGly(cPr)]I[Sar][Sar][NMeCha][Sar][hPhe(3-Cl-4-CF3)]P)), the IC50 falls from 280 nM to 28 nM (10-fold).

Compared with CC[C@H](C)[C@@H]1NC(=O)[C@H](C)N(C)C(=O)C[C@@H](C)NC(=O)[C@H](C(C)C)N(C)C(=O)C2(CCCC2)NC(=O)[C@@H]2CCCN2C(=O)[C@H](CCc2ccc(C(F)(F)F)c(Cl)c2)NC(=O)[C@@H](C)N(C)C(=O)[C@H](CC2CCCCC2)N(C)C(=O)[C@@H]2CCN2C(=O)[C@H](C)N(C)C1=O [Compound 831] (cyclo([Ac5c][NMeV][d(β3hA)][NMeA]I[NMeA][Aze][NMeCha][dNMeA][hPhe(3-Cl-4-CF3)]P)), CC[C@H](C)[C@@H]1NC(=O)[C@H](C)N(C)C(=O)C[C@@H](C)NC(=O)[C@H](C(C)C)N(C)C(=O)C2(CCCC2)NC(=O)[C@@H]2CCCN2C(=O)[C@H](CCc2ccc(C(F)(F)F)c(Cl)c2)NC(=O)[C@H]2CCCCN2C(=O)[C@H](CC2CCCCC2)N(C)C(=O)[C@@H]2CCCN2C(=O)CN(C)C1=O [Compound 834] (cyclo([Ac5c][NMeV][d(β3hA)][NMeA]I[Sar]P[NMeCha][dPip][hPhe(3-Cl-4-CF3)]P)) is 3.2-fold lower in IC50: 180 nM for the first, 57 nM for the second. The second is the more potent here.

Compared with CC[C@H](C)[C@@H]1NC(=O)[C@H](CC(C)C)N(C)C(=O)C[C@@H](C)N(C)C(=O)[C@H]([C@@H](C)CC)N(C)C(=O)C2(CCC2)NC(=O)[C@@H]2CC(F)(F)CN2C(=O)[C@H](CCc2ccc(C(F)(F)F)c(Cl)c2)NC(=O)CN(C)C(=O)[C@H](Cc2ccc(C(F)(F)F)cc2)N(CC)C(=O)[C@@H]2CCN2C(=O)[C@H](C)N(C)C1=O [Compound 833] (cyclo([Ac4c][NMeI][NMedβ3hAla][NMeL]I[NMeA][Aze][NEtPhe(4-CF3)][Sar][hPhe(3-Cl-4-CF3)][Pro(4,4-F2)])), CC[C@H](C)[C@@H]1NC(=O)[C@@H]2CCCCN2C(=O)C[C@@H](C)NC(=O)[C@H](CC(C)C)N(C)C(=O)C2(CCCC2)NC(=O)[C@H](CC(C)C)N(C)C(=O)[C@H](CCc2ccc(C(F)(F)F)cc2)NC(=O)CN(C)C(=O)[C@H](Cc2ccc(Cl)cc2)N(C)C(=O)CN(C)C(=O)CN(C)C1=O [Compound 847] (cyclo([Ac5c][NMeL][d(β3hA)][Pip]I[Sar][Sar][NMePhe(4-Cl)][Sar][hPhe(4-CF3)][NMeL])) is 5.9-fold higher in IC50: 9.1 nM for the first, 54 nM for the second.

With CC[C@H](C)[C@@H]1NC(=O)[C@@H]2CCCCN2C(=O)C[C@@H](C(=O)N2CCCCC2)N(C)C(=O)[C@H](C(C)C)N(C)C(=O)C2(CCCC2)NC(=O)[C@@H]2CCCN2C(=O)[C@H](CCc2ccc(Cl)cc2)NC(=O)CN(C)C(=O)[C@H](CC2CCCCC2)N(C)C(=O)CN(C)C(=O)CN(C)C1=O [Compound 841] ([Pip]I[Sar][Sar][NMeCha][Sar][hPhe(4-Cl)]P[Ac5c][NMeV][NMeD]-Piperidide; lactam N-11) the IC50 was 24 nM.
